From publication PMC12472391, “Borylated Five-Membered Ring Iminosugars: Synthesis, Spectroscopic Analysis, and Biological Evaluation for Glycosidase Inhibition and Anticancer Properties for Application in Boron Neutron Capture Therapy (BNCT)—Part 1” (Pharmaceuticals, 2025)

Columns and labels:
[1] = system: α-D-glucosidase (rat intestinal maltase); test: Glycosidase inhibition, Table 6 (Laboratory 1); format: biochemical
Excerpt: (§1) The enzymes α-D-glucosidase (from yeast), β-D-glucosidases (from almond and bovine liver), α-D-galactosidase (from coffee beans), β-D-galactosidase (from bovine liver), α-D-mannosidase (from Jack bean), β-D-mannosidase (from snail), α-L-rhamnosidase (from Penicillium decumbens), α-L-fucosidase (from bovine kidney), trehalase (from porcine kidney), β-D-glucuronidases (from E. coli and bovine liver), amyloglucosidase (from A. niger), para-nitrophenyl glycosides, and various disaccharides were purchased from Sigma-Aldrich Co. (St. Louis, MO, USA).
(§2) Brush border membranes were prepared from the rat small intestine according to the method of Kessler et al., and were assayed at pH 6.8 for rat intestinal maltase using maltose. For rat intestinal maltase, porcine kidney trehalase, and A. niger amyloglucosidase activities, the reaction mixture contained maltose (25 mM) and the appropriate amount of enzyme, and the incubations were performed for 10–30 min at 37 °C. The reaction was stopped by heating at 100 °C for 3 min. After centrifugation (600× g; 10 min), the resulting reaction mixture was added to the Glucose CII-test Wako (Wako Pure Chemical Ind., Osaka, Japan). The absorbance at 505 nm was measured to determine the amount of the released D-glucose. Other glycosidase activities were determined using an appropriate para-nitrophenyl glycoside as substrate at the optimum pH of each enzyme. The reaction mixture contained the substrate (2 mM) and the appropriate amount of enzyme. The reaction was stopped by the addition of Na2CO3 (400 mM). The released para-nitrophenol was measured spectrometrically at 400 nm. All reactions run in methanol.

[2] = target: T1, β-D-galactosidase (bovine liver) (Bos taurus, UniProt Q58D55); test: Glycosidase inhibition, Table 6 (Laboratory 1); format: biochemical
T1 sequence (Q58D55 28-653): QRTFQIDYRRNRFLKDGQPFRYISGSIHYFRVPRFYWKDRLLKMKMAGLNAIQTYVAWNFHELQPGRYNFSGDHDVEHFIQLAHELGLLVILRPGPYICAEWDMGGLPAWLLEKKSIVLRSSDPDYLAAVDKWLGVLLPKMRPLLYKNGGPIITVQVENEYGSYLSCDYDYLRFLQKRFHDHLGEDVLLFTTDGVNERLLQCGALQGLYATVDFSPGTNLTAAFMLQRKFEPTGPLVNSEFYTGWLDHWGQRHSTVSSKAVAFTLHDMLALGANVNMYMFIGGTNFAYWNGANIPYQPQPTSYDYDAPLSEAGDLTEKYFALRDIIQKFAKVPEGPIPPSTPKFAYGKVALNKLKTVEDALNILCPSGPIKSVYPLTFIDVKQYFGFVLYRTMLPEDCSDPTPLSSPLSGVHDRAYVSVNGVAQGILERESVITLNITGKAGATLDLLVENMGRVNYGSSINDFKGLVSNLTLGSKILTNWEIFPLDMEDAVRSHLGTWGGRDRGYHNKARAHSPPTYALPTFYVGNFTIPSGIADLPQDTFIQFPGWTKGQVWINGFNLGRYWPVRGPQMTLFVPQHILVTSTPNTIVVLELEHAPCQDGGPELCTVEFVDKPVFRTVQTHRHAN
Excerpt: as §1, §2

[3] = system: β-D-glucosidase (bovine liver); test: Glycosidase inhibition, Table 6 (Laboratory 1); format: biochemical
Excerpt: as §1, §2

α-D-glucosidase (yeast) = target: T2, α-D-glucosidase (yeast) (Saccharomyces cerevisiae, UniProt P53341); test: Glycosidase inhibition, Table 7; format: biochemical; conditions: 1 mg/mL aqueous solution added, 27 °C, run in water; for inhibition at 1000 µg/mL (stock): read-out: α-D-Glucosidase Yeast, percentage inhibition
T2 construct: purchased Sigma
Description: (§3) All enzymes and para-nitrophenyl substrates were purchased from Sigma. Enzymes were assayed at 27 °C in citric acid (0.1M)/disodium hydrogen phosphate (0.2 M) buffers at the optimum pH for the enzyme. The incubation mixture consisted of […] enzyme solution, […] of 1 mg/mL aqueous solution of extract, and […] of the appropriate 5 mM para-nitrophenyl substrate made up in buffer at the optimum pH for the enzyme. The reactions were stopped by the addition of […] 0.4 M glycine (pH 10.4) during the exponential phase of the reaction, which had been determined at the beginning using uninhibited assays in which water replaced the inhibitor. Final absorbances were read at 405 nm using a Versamax microplate reader (Molecular Devices). Assays were carried out in triplicate, and the values given are the means of the three replicates per assay. All reactions run in water.

β-D-glucosidase (almond) = test: Glycosidase inhibition, Table 7; format: biochemical; conditions: 1 mg/mL aqueous solution added, 27 °C, run in water
Description: as §3

[4] = system: β-D-glucuronidase (bovine liver); test: Glycosidase inhibition, Table 7; format: biochemical; conditions: 1 mg/mL aqueous solution added, 27 °C, run in water
Description: as §3

[5] = Appearance: 1 mL of water added to 1 mg of solid, and mixed; format: physicochemical
[6] = target: T3, α,α-trehalase (porcine kidney) (Sus scrofa, UniProt I3LIR5); test: Glycosidase inhibition, Table 6 (Laboratory 1); format: biochemical
T3 construct: purchased Sigma-Aldrich Co
T3 sequence (I3LIR5 24-583): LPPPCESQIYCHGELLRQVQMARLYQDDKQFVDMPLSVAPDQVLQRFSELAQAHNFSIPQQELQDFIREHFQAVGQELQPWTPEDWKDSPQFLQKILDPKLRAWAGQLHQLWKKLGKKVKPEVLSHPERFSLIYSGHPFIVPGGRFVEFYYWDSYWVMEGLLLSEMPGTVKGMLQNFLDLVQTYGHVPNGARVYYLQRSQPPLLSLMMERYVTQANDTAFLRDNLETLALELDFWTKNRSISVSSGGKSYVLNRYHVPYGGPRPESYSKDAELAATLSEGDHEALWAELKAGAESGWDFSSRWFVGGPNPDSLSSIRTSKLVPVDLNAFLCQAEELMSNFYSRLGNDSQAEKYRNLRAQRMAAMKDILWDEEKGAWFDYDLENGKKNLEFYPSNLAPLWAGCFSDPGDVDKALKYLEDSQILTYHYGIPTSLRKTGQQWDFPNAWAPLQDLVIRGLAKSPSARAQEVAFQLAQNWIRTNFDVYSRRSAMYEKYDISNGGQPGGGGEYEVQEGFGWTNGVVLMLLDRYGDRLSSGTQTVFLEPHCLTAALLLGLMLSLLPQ
Excerpt: as §1, §2

T2 sequence (P53341 whole entry): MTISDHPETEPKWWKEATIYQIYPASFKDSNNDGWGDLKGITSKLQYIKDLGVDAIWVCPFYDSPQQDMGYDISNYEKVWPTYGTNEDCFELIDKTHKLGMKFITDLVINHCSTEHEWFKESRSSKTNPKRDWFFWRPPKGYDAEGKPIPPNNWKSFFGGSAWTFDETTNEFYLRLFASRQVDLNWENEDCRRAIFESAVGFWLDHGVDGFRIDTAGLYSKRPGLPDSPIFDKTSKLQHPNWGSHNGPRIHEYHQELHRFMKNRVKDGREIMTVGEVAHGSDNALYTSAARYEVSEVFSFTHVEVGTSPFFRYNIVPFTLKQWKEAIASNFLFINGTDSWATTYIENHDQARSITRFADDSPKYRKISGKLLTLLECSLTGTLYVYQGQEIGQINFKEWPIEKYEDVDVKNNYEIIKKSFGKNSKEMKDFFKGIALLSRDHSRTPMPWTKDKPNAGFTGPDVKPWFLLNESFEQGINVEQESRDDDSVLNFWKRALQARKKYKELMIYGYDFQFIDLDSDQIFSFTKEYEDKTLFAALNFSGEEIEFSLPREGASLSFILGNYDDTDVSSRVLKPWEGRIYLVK

Compound | α-D-Glucosidase Rat Intestinal Maltase, inhibition % at 100 μM [1] | inhibition at 100 µM [2] [%] | β-D-Glucosidase Bovine Liver, inhibition % at 100 μM [3] | inhibition at 1000 µg/mL (stock) (α-D-glucosidase (yeast)) [%] | β-D-Glucosidase Almond, percentage inhibition (β-D-glucosidase (almond)) [%] | β-D-Glucuronidase Bovine Liver, percentage inhibition [4] [%] | Appearance [5] | inhibition at 100 µM [6] [%] | inhibition at 1000 µM [6] [%] | α-D-Glucosidase Rat Intestinal Maltase, inhibition % at 1000 μM [1] | β-D-Glucosidase Bovine Liver, inhibition % at 1000 μM [3] | α,α-Trehalase Porcine Kidney, inhibition % at 100 μM ([6]; 100 μM) | β-D-Galactosidase Bovine Liver, inhibition % at 100 μM ([2]; 100 μM) | α-D-Glucosidase Yeast, percentage inhibition (α-D-glucosidase (yeast)) [%] | α,α-Trehalase Porcine Kidney, inhibition % at 1000 μM ([6]; 1000 μM) | β-D-Galactosidase Bovine Liver, inhibition % at 1000 μM ([2]; 1000 μM)
N[C@@H](Cc1ccc(B(O)O)cc1)C(=O)O [BPA, 4-borono-L-phenylalanine, reference compound] | ^c NI ^d (0%) | 10.9 | ^c NI ^d (0%) | 2.9 | 3.9 | −0.7 | Some in solution with undissolved sediment | – | – | – | – | – | – | – | – | –
CC1(C)O[C@H]2O[C@H]3[C@@H]([C@H]2O1)N(Cc1ccccc1)C[C@H]3O [Compound 3, N-Benzyl-3,6-dideoxy-3,6-imino-1,2-O-isopropylidene-α-D-gulofuranose] | ^c NI ^d (0%) | 26.1 | ^c NI ^d (31.9%) | -89 | −8.3 | −0.2 | In solution | 0 | – | – | – | – | – | – | – | –
OC1O[C@@H]2[C@H]([C@H]1O)N(Cc1ccccc1)C[C@H]2O (stereo partly drawn) [Compound 4, N-Benzyl-3,6-dideoxy-3,6-imino-D-gulofuranose] | – | – | – | -79 | 58.1 | −4.3 | In solution | – | 0 | ^a NI ^b (22.4%) | ^a NI ^b (16.4%) | – | – | – | – | –
OC[C@H](O)[C@@H]1[C@H](O)[C@H](O)CN1Cc1ccccc1 [Compound 5, N-Benzyl-1,4-dideoxy-1,4-imino-L-gulitol] | ^c NI ^d (12.9%) | 0 | ^c NI ^d (3.3%) | 5.5 | 17.1 | −2.2 | In solution | 0 | – | – | – | – | – | – | – | –
N[C@@H](Cc1ccc(B(O)O)cc1)C(=O)O [^10B-BPA, reference compound] | ^c NI ^d (0%) | – | ^c NI ^d (14.2%) | – | 3 | −1 | Some in solution with undissolved sediment | – | – | – | – | ^c NI ^d (0%) | ^c NI ^d (0%) | 3.4 | – | –
CC1(C)O[C@H]2O[C@H]3[C@@H]([C@H]2O1)N(Cc1ccc(B2OC(C)(C)C(C)(C)O2)cc1)C[C@H]3O [para 6, N-(4-Methylphenylboronic acid pinacol ester)-3,6-dideoxy-3,6-imino-1,2-O-isopropylidene-α-D-gulofuranose] | ^c NI ^d (0%) | 22.3 | ^c NI ^d (13%) | – | – | – | Completely insoluble | 0 | – | – | – | – | – | – | – | –
OB(O)c1ccc(CN2CC(O)C3OC(O)C(O)C32)cc1 [para 7, N-(4-Methylphenylboronic acid)-3,6-dideoxy-3,6-imino-D-gulofuranose] | – | – | – | 4.2 | 68.1 | 1.1 | In solution | – | 0 | ^a NI ^b (0%) | ^a NI ^b (38.8%) | – | – | – | – | –
OC[C@H](O)[C@@H]1[C@H](O)[C@H](O)CN1Cc1ccc(B(O)O)cc1 [para 8, N-(4-Methylphenylboronic acid)-1,4-dideoxy-1,4-imino-L-gulitol] | – | – | – | 9.7 | 23.9 | 2.4 | In solution | – | 0 | ^a NI ^b (10.5%) | ^a NI ^b (27.1%) | – | – | – | – | –
borocaptate sodium [BSH, reference compound] | – | – | – | – | 47.3 | 31.6 | In solution | – | – | ^a NI ^b (0%) | ^a NI ^b (15%) | – | – | 59 | ^a NI ^b (4.2%) | ^a NI ^b (0%)
